Measurements from US20240426847A1, “COMPOSITIONS AND METHODS FOR THE DETERMINATION OF SODIUM CONCENTRATION” (The University of Chicago, priority 2023, published 2024).

Experiments:
[1] = biological target: T1, PIKfyve (Mus musculus, UniProt Q9Z1T6); experiment: Pharmacological inhibition of macrophages, lysosomal Na^+ measured with RatiNa; assay type: cell-based, murine; conditions: RAW 264.7 macrophages, 100 nM apilimod 1 h; native lysosomes ~48 mM
T1 construct: endogenous in cells; host or cells: RAW 264.7 macrophages
T1 sequence (Q9Z1T6 whole entry): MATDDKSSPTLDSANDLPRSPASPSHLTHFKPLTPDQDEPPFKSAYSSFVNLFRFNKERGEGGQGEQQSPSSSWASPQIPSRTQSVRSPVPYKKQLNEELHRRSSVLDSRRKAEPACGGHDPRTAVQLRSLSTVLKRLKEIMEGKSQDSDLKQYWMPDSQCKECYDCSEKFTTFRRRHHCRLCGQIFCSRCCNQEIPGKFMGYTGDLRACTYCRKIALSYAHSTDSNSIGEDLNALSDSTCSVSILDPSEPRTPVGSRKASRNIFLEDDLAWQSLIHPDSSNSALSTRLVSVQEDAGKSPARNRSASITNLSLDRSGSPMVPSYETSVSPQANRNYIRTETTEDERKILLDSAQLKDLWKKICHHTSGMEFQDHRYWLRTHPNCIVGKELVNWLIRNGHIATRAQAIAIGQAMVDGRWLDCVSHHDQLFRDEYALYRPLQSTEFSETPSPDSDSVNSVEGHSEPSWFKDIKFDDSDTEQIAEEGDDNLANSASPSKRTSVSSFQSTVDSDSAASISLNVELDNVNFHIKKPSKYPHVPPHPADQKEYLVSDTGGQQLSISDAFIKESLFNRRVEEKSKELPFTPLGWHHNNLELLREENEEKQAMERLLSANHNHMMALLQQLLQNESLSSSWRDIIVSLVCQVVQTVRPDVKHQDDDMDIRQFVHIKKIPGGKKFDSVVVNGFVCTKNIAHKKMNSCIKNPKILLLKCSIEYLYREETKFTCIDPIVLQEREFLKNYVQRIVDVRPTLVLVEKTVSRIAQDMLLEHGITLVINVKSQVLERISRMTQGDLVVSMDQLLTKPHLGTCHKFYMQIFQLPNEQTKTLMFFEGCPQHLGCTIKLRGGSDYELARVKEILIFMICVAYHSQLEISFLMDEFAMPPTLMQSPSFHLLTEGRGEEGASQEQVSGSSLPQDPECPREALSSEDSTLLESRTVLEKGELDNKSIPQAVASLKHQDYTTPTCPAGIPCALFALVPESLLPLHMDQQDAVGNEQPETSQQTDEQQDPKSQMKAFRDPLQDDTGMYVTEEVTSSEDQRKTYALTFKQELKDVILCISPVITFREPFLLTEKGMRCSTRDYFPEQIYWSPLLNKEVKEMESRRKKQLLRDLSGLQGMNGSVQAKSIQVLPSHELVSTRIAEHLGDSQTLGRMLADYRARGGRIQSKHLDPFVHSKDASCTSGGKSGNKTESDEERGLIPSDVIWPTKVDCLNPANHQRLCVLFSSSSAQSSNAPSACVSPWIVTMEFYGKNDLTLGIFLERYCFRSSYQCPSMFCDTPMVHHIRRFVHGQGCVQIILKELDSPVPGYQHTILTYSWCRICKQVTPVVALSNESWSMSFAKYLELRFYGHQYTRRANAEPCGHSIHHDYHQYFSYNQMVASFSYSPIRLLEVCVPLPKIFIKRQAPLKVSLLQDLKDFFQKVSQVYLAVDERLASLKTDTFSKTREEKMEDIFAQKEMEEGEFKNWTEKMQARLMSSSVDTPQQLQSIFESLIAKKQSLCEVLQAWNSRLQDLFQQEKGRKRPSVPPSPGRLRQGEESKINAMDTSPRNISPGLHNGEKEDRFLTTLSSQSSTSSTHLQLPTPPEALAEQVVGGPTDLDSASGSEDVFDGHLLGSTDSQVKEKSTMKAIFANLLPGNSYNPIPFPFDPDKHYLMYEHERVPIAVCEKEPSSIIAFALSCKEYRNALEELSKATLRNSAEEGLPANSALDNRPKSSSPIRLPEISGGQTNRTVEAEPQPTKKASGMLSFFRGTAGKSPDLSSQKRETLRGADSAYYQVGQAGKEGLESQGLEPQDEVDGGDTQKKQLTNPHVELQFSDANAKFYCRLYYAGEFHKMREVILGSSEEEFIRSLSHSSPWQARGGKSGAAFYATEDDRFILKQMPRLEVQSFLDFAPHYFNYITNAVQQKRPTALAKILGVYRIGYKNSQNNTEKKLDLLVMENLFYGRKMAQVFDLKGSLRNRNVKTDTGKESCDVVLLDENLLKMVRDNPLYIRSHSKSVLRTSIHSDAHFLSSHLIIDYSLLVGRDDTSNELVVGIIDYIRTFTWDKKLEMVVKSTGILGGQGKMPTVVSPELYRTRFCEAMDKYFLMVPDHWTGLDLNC
Experimental: 1 μM RatiNa in prewarmed Opti-MEM was added to RAW macrophage and incubated for 2 h for maximum RatiNa uptake. Cells were then washed 3 times with PBS and incubated in prewarmed complete DMEM medium for 30 min to allow lysosome targeting of RatiNa. RatiNa in cell was then imaged in confocal microscope or widefield microscope.
RAW macrophage was treated with 100 nM apilimod for 1 h to inhibit PIKfyve. RatiNa treatment was done as stated previously with 100 nM apilimod in all medium. Cell was then imaged in confocal microscope.

[2] = ssDNA-CG Na^+ sensitivity by fluorescence; assay type: physicochemical; conditions: 1 mM and 150 mM NaCl, 100 nM ssDNA-CG, pH 7.4 potassium phosphate buffer
Experimental: FIGS. 12A-12B illustrate the validation of CG-DNA conjugate efficiency and Na^+ sensitivity. […] Molar ratio of DNA to CG is confirmed to be ˜ 1:1 confirming the coupling efficiency. […] 1 mM and 150 mM NaCl was added to 100 nM of ssDNA-CG in pH 7.4 potassium phosphate buffer. Fluorescence maximum at 545 increases more than 5-fold.
100 nM of RatiNa was aliquoted in UB buffer (10 mM HEPES, MES and potassium acetate, 140 mM NaCl/KCl). pH adjusted by HCl or KOH) Fluorescent emission spectra was taken by Fluoromax (Horiba) with the following collection parameters: For CG, dex=522 nm, range from 530 nm to 600 nm. For ATTO647N, dex=645 nm, range from 660 nm to 700 nm.

Compound	lysosomal Na^+ upon PIKfyve inhibition [1] [mM]	increase of fluorescence maximum at 545 [2]
Cc1cccc(/C=N/Nc2cc(N3CCOCC3)nc(OCCc3ccccn3)n2)c1 [apilimod]	~70	
ssDNA-CG: 25mer ssDNA conjugated to CG dye by CuAAC coupling (CGATCAACACTGCATATATATACGACC; CG dye conjugated by CuAAC, chemistry not fully specified)		more than 5 fold
